Laboratory results reported in ChEMBL document CHEMBL5291721, “A preclinical secondary pharmacology resource illuminates target-adverse drug reaction associations of marketed drugs” (Nat Commun, 2023).

Key:
Adenosine receptor A2a = Adenosine receptor A2a (Homo sapiens, UniProt P29274)
Adenosine receptor A3 = target: T1, Adenosine receptor A3 (Homo sapiens, UniProt P0DMS8)
T1 sequence (P0DMS8 whole entry): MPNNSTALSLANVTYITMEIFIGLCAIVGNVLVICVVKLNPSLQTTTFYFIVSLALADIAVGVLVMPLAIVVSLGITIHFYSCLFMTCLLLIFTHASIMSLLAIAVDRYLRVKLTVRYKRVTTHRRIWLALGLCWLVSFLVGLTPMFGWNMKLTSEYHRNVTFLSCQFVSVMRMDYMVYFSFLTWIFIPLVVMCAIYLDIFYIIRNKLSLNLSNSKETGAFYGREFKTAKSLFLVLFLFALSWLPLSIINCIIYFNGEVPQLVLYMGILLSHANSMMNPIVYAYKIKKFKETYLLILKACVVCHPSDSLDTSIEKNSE

[1] = target: Beta-1 adrenergic receptor (Homo sapiens, UniProt P08588); type: functional
[2] = target: T2, Type-1 angiotensin II receptor (Homo sapiens, UniProt P30556)
T2 sequence (P30556 whole entry): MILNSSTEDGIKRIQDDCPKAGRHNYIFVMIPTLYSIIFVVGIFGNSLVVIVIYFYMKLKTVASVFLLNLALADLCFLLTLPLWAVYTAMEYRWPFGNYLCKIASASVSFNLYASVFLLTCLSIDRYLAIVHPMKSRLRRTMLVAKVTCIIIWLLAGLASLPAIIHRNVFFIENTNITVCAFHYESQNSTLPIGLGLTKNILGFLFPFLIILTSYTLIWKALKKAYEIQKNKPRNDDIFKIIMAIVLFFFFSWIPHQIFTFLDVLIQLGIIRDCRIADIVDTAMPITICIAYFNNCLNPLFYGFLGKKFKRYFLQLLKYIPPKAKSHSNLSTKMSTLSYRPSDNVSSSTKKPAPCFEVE

[3] = target: Growth hormone secretagogue receptor type 1 (Homo sapiens, UniProt Q92847)
[4] = target: T3, 5-hydroxytryptamine receptor 1A (Homo sapiens, UniProt P08908); type: functional, cell-based
T3 sequence (P08908 whole entry): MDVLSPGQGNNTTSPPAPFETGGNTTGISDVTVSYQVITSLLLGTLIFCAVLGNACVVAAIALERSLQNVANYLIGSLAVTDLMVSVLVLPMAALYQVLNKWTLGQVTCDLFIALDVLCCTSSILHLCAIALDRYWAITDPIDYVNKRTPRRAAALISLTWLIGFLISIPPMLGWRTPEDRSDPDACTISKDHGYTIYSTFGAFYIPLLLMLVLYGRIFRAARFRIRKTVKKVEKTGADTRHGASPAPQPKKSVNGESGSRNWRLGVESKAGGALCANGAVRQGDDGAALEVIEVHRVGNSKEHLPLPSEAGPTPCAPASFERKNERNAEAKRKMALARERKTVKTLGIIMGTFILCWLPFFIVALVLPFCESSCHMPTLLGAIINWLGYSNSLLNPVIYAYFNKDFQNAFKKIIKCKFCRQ

[5] = target: T4, 5-hydroxytryptamine receptor 2C (Homo sapiens, UniProt P28335)
T4 sequence (P28335 whole entry): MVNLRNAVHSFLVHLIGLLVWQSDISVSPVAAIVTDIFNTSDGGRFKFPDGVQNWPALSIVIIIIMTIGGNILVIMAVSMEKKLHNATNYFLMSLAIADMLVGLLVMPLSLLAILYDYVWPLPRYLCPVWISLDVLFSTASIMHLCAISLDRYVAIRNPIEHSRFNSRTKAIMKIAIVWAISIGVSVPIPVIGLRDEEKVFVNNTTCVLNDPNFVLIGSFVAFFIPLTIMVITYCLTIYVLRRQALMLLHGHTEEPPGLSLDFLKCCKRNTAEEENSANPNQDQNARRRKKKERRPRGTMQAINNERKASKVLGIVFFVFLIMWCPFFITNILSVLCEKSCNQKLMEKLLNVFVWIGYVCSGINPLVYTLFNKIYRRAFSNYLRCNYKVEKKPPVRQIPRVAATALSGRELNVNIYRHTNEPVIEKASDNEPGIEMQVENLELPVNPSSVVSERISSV

Motilin receptor = Motilin receptor (Homo sapiens, UniProt O43193)
[6] = target: Delta-type opioid receptor (Homo sapiens, UniProt P41143)
[7] = target: Kappa-type opioid receptor (Homo sapiens, UniProt P41145)
Thromboxane A2 receptor = target: T5, Thromboxane A2 receptor (Homo sapiens, UniProt P21731)
T5 sequence (P21731 whole entry): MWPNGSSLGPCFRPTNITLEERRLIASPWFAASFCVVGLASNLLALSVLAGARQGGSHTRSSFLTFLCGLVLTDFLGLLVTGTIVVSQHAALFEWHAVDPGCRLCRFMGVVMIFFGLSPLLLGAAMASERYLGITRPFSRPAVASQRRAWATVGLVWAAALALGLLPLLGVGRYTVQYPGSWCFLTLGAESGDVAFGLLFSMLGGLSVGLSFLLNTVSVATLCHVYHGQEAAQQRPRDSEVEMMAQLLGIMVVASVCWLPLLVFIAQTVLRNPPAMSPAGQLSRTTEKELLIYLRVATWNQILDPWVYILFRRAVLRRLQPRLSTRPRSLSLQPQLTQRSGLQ

[8] = target: T6, Amine oxidase [flavin-containing] A (Homo sapiens, UniProt P21397); type: functional
T6 sequence (P21397 whole entry): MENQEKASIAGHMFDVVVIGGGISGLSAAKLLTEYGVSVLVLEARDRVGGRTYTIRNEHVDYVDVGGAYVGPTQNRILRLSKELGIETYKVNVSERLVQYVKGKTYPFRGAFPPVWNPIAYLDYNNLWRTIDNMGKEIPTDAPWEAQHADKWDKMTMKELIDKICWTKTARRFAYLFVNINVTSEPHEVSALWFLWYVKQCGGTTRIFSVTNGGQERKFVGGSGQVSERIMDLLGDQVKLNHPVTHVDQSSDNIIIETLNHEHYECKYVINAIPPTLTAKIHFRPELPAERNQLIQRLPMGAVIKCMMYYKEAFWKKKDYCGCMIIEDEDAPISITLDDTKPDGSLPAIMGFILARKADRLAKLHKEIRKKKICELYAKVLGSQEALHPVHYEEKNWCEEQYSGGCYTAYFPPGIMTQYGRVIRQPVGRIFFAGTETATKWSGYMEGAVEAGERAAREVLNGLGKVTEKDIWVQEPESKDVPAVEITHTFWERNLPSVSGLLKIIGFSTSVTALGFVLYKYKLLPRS
Also: assay procedure not described here.

Sequence of Delta-type opioid receptor (P41143 whole entry): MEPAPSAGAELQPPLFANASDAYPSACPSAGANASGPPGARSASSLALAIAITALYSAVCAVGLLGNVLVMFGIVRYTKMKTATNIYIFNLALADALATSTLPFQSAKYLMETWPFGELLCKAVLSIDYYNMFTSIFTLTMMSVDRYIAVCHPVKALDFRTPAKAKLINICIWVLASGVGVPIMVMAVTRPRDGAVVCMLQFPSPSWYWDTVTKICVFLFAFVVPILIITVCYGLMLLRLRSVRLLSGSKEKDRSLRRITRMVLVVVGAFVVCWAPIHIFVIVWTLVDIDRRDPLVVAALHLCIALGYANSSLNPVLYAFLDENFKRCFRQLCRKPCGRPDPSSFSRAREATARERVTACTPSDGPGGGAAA
Sequence of Motilin receptor (O43193 whole entry): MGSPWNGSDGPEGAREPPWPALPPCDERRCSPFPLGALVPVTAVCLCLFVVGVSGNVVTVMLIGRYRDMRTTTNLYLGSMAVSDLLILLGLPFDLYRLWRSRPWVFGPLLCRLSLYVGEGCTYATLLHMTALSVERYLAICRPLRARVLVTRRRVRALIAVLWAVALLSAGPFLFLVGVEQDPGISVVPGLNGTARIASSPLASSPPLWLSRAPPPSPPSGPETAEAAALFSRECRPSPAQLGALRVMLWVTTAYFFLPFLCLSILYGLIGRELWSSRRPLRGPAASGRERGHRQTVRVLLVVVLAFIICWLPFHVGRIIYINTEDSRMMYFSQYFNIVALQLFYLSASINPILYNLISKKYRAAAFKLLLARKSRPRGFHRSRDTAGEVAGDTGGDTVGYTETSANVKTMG
Sequence of Adenosine receptor A2a (P29274 whole entry): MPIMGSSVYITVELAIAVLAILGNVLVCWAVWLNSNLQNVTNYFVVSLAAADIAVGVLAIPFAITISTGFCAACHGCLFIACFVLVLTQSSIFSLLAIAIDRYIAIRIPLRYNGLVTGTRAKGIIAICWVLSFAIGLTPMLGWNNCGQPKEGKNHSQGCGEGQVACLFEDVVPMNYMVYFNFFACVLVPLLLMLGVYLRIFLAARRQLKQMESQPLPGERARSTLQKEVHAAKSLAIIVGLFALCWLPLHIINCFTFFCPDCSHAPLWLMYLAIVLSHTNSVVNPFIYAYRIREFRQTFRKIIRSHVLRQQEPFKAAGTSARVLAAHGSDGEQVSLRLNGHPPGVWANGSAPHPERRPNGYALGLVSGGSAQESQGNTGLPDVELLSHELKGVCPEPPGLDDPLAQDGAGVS
Sequence of Beta-1 adrenergic receptor (P08588 whole entry): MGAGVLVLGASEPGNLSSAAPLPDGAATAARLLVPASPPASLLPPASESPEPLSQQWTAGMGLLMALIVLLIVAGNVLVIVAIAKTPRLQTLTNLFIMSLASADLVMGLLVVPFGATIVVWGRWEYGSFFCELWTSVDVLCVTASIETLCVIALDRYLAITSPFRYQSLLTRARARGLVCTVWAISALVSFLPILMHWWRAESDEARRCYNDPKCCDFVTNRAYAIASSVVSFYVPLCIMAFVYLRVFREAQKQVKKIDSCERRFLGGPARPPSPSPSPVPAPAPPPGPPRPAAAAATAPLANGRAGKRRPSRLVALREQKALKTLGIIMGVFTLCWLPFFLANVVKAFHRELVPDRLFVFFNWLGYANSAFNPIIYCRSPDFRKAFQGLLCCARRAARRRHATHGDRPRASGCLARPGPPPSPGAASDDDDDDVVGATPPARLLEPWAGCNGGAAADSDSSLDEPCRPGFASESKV
Sequence of Growth hormone secretagogue receptor type 1 (Q92847 whole entry): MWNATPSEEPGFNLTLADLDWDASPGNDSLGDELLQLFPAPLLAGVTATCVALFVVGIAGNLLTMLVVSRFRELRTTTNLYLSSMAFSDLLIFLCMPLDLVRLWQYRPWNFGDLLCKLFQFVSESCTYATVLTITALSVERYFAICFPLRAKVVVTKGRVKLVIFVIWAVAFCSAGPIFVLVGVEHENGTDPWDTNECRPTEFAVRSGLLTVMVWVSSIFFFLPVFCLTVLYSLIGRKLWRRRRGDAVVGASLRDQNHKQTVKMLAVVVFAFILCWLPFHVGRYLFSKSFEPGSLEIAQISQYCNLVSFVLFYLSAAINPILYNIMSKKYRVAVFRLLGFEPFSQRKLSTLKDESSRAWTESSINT
Sequence of Kappa-type opioid receptor (P41145 whole entry): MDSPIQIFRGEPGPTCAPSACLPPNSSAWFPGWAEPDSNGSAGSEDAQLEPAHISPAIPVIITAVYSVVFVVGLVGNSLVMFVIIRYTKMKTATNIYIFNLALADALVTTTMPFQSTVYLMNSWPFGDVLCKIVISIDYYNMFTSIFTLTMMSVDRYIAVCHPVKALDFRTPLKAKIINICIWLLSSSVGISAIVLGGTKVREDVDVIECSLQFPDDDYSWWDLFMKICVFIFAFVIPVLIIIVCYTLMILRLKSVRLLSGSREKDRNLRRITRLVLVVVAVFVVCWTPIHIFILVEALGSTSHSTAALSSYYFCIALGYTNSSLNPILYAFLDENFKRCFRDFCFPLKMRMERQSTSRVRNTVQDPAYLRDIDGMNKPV

| Compound | AC50 (Adenosine receptor A2a) [µM] | AC50 (Adenosine receptor A3) [µM] | AC50 [1] [µM] | AC50 [2] [µM] | AC50 [3] [µM] | AC50 [4] [µM] | AC50 [5] [µM] | AC50 (Motilin receptor) [µM] | AC50 [6] [µM] | AC50 [7] [µM] | AC50 (Thromboxane A2 receptor) [µM] | AC50 [8] [µM] |
| --- | --- | --- | --- | --- | --- | --- | --- | --- | --- | --- | --- | --- |
| C[C@]12CC[C@H](O)CC1=CC[C@@H]1[C@@H]2CC[C@]2(C)C(c3cccnc3)=CC[C@@H]12 [ABIRATERONE] | > 30 | > 30 | > 30 | > 30 | > 30 | > 10 | > 30 | > 10 | > 30 | > 10 | > 30 | > 10 |
| CN(C)C(=O)Oc1cc(OC(=O)N(C)C)cc(C(O)CNC(C)(C)C)c1 (stereo not given) [BAMBUTEROL] | > 30 | > 30 | > 30 | > 30 | > 30 | – | – | > 30 | – | – | > 30 | – |
| C[C@H]1C[C@H]2[C@@H]3CCC4=CC(=O)C=C[C@]4(C)[C@@]3(Cl)[C@@H](O)C[C@]2(C)[C@@]1(O)C(=O)CO [BECLOMETHASONE] | > 30 | > 30 | > 10 | > 30 | > 30 | – | > 30 | > 10 | > 30 | > 10 | > 30 | > 10 |
| NS(=O)(=O)c1cc(C2(O)NC(=O)c3ccccc32)ccc1Cl (stereo not given) [CHLORTHALIDONE] | > 10 | > 10 | > 10 | > 10 | > 10 | > 10 | > 30 | > 10 | – | > 10 | > 10 | > 10 |
| C[C@@H]1CCC[C@H](C)N1NC(=O)c1ccc(Cl)c(S(N)(=O)=O)c1 [CLOPAMIDE] | > 30 | > 30 | > 30 | > 30 | > 30 | > 30 | > 30 | > 30 | > 30 | > 30 | > 30 | > 30 |
| COc1ccc2c(c1)[C@]13CCCC[C@@H]1[C@H](C2)N(C)CC3 [DEXTROMETHORPHAN] | > 30 | > 30 | > 10 | > 30 | > 30 | > 10 | > 30 | > 10 | > 10 | – | > 30 | > 10 |
| O=c1oc2ccccc2c(O)c1Cc1c(O)c2ccccc2oc1=O [DICUMAROL] | > 10 | > 10 | > 10 | > 10 | > 10 | > 10 | > 30 | > 10 | > 30 | > 10 | > 10 | > 10 |
| O=C(O)CSCC(=O)NC1CCSC1=O (stereo not given) [ERDOSTEINE] | > 30 | > 30 | > 30 | > 30 | > 30 | > 30 | > 30 | > 30 | > 30 | > 30 | > 30 | > 30 |
| COc1cccc(N(C)C(=S)Oc2ccc3c(c2)CCCC3)n1 [LIRANAFTATE] | > 30 | > 30 | > 30 | > 30 | > 30 | > 30 | > 30 | > 30 | > 30 | 1.5 | > 30 | 18 |
| C#C[C@]1(O)CC[C@H]2[C@@H]3CCc4cc(OC)ccc4[C@H]3CC[C@@]21C [MESTRANOL] | > 30 | > 30 | > 10 | > 10 | > 10 | > 10 | > 30 | > 10 | > 30 | > 10 | > 10 | > 30 |
| N=C(N)c1ccc2cc(OC(=O)c3ccc(N=C(N)N)cc3)ccc2c1 [NAFAMOSTAT] | > 30 | 21 | > 30 | > 30 | 21 | > 30 | > 30 | 27 | – | 17 | > 30 | 14 |
| O=C(O)c1cc(O)c2c3nc4ccccc4oc-3cc(=O)c2n1 [PIRENOXINE] | > 30 | > 30 | > 30 | > 30 | > 30 | > 30 | 2.3 | > 30 | 2.2 | > 30 | > 30 | 2.2 |
| NS(=O)(=O)c1cc(C(=O)O)cc(N2CCCC2)c1Oc1ccccc1 [PIRETANIDE] | > 30 | > 30 | > 30 | > 30 | > 30 | > 30 | > 30 | > 30 | > 30 | > 30 | > 30 | > 30 |
| CNCCCC1c2ccccc2C=Cc2ccccc21 [PROTRIPTYLINE] | > 10 | > 10 | – | > 10 | > 10 | > 10 | – | > 10 | > 30 | – | > 10 | > 10 |
| O=C(CCCN1CCC2(CC1)C(=O)NCN2c1ccccc1)c1ccc(F)cc1 [SPIPERONE] | > 30 | > 30 | 2.8 | > 30 | > 10 | – | 10.3 | > 30 | – | – | > 30 | > 30 |
